From patent publication US9770434B2, “Compositions for improved body composition” (Northern Innovations Holding Corp, priority 2014, dated 2017)
Entries after “also recorded” stand apart in the source; their conditions may differ.

Columns and labels:
Type in all cases: in vivo, C57BL6/J male mice
[1] = Body weight of high fat diet mice during treatment; conditions: HFD mice, ALA about 174 mg/kg daily, curcumin about 65 mg/kg daily; for body weight during the course of the experiment (FIG. 1): supplement in diet, recorded weekly
Excerpt: (§1) 5 week old C57BL6/J male mice were divided into 2 groups as follows: normal diet (ND) (10% kcal/fat) or high fat diet (HFD) (60% kcal/fat) each containing the same total calories. At 12 weeks of age, the HFD group was further divided into 4 groups as follows: HFD alone, HFD supplemented with alpha-lipoic acid (HFD+ALA), HFD supplemented with curcumin (HFD+CUR), or HFD supplemented with alpha-lipoic acid plus curcumin (HFD+ALA+CUR). Based on the average food intake, the daily dose for alpha-lipoic acid in the HFD+ALA group was about 174 mg/kg, the daily dose for curcumin in the HFD+CUR group was about 65 mg/kg, and the daily dose for each component in the HFD+ALA+CUR group was similar to that in the respective groups. Each of the 5 groups contained 8-10 mice. Body weight of the mice was recorded weekly and food intake was monitored every two days. After 10 weeks of treatment mice from each group were subjected to dual-energy X-ray absorptiometry (DEXA) scan; percent (%) body fat, fat mass, and lean mass were calculated.

[2] = Food intake of high fat diet mice; conditions: HFD mice; monitored every two days; compared to HFD mice
Excerpt: as §1

[3] = DEXA scan of high fat diet mice (body fat %, fat mass, lean mass); conditions: HFD mice; after 10 weeks of treatment
Excerpt: as §1

SMILES | body weight / weight gain after 11 weeks of treatment (FIG. 3) [1] | body weight during the course of the experiment (FIG. 1) [1] | food intake (grams) per day per gram body weight (FIG. 4) [2] | food intake (kcals) per day per gram body weight (FIG. 5) [2] | DEXA body fat % (FIG. 6) [3] | DEXA fat mass (FIG. 7) [3] | DEXA lean mass (FIG. 8) [3]
O=C(O)CCCCC1CCSS1 (racemic) [alpha-lipoic acid, 6,8-dithio octanoic acid] | attenuated weight gain; also recorded: efficacy at attenuating weight gain | weight gain less than the HFD mice | reduced food intake | reduced calorie intake | failed to reduce body fat % | attenuated increase in fat mass compared to the HFD group | significant attenuation in lean mass accrual
COc1cc(/C=C/C(=O)CC(=O)/C=C/c2ccc(O)c(OC)c2)ccc1O [curcumin] | attenuated weight gain; also recorded: efficacy at attenuating weight gain | weight gain less than the HFD mice | – | – | reduced the increased body fat % from a high fat diet | – | unaltered
